The values below come from patent publication US20240245631A1, “METHODS OF TREATING LENNOX-GASTAUT SYNDROME USING FENFLURAMINE” (ZOGENIX INTERNATIONAL LIMITED, priority 2015, published 2024).

One data set concerns Lennox-Gastaut patients. Kind of data set: Open-label Phase 2 add-on study of low-dose fenfluramine in Lennox-Gastaut patients. It counts as in vivo, human. The procedure:
The efficacy of fenfluramine as an add-on treatments in Lennox-Gastaut patients is studied in a Phase 2 Clinical Trial. The study protocol is described and preliminary results are presented here.
An open-label, non-placebo controlled add-on study was designed to assess the efficacy and safety of low-dose add-on fenfluramine across a range of fenfluramine doses (0.2, 0.4, 0.8 mg/kg/day, to a maximum of 30 mg/day). The trial was conducted over a 20 week period, with responders eligible for follow-on treatment, with follow-up appointments at three month intervals.
Patients were recruited from childhood epilepsy clinics in Leuven and Antwerp, Belgium, and selected for inclusion in the study according to criteria comprising a combination of age, physical and psychological characteristics, and resistance to treatment with conventional therapies. Details of selection criteria are provided below.
Study duration is 20 weeks, ending at week 20 after inclusion of 20 patients, i.e., 20 weeks following the enrollment of the 20th patient. Patients who respond to treatment are enrolled in a follow-on study and assessed on an ongoing basis.
Patients are examined during six clinical visits (V1 through V6) scheduled at four week intervals, ending with V6 at week 20. […] At each visit, endpoints and safety criteria are assessed, and dosages adjusted as necessary.
Add-on treatment is begun at V2. […] Endpoints and safety criteria are assessed (seizure counting, adverse effects, pregnancy testing, and quality of life indicators (CGI, sleep scale)). […]
At each of V3-V5, endpoints and safety criteria are again assessed. […]
At V6, endpoints and safety criteria are again assessed. […]
Fenfluramine: Oral fenfluramine solution (2.5 mg/ml or 5 mg/ml) is provided by Zogenix Pharma. […] Patient compliance is assessed by control of oral solution quantity at each visit and collection of seizure diary with notification of drug intake. […]
Safety assessment: Treatment safety is assessed using a combination of physical examination, blood testing, cardiac evaluation, and adverse event reporting. […]

Data set [1] has as its system children with refractory epilepsy. To be noted: 0.5 to 1 mg/kg/day; cited from earlier work.
Data set [2] relates to child suffering pattern sensitivity-induced seizures. To be noted: single case, resistant to anticonvulsive treatment; cited from earlier work.
Data set [3] relates to self-induced photosensitive seizures. To be noted: four cases; cited from earlier work.

Turning to `CCNC(C)Cc1cccc(C(F)(F)F)c1` (stereo not drawn) [fenfluramine, 3-trifluoromethyl-N-ethylamphetamine], in the data set on Lennox-Gastaut patients (3 patients receiving 0.2 mg/kg/day, add-on, interim results), the total seizure frequency result is reported as “significant decreases in total seizure frequency”. Also, the serious side effects entry with Lennox-Gastaut patients (9 patients receiving add-on fenfluramine, interim results) is “None of the 9 patients receiving fenfluramine reported serious side effects”. Moreover, in the data set on Lennox-Gastaut patients (low-dose add-on treatment, early interim data), the “seizure frequency (overall interim conclusion)” value was “effective in reducing seizure frequency”. For the same molecule, in data set [1], the “number of seizures experienced by the patients” value is on record as “reduction in the number of seizures”. Moreover, the self-induced seizures entry in data set [2] is listed as “successfully terminated these self-induced seizures”. Besides, in data set [3], the “response of self-induced photosensitive seizures” value is on record as “responded to treatment with fenfluramine”.
